The values below are quoted from earlier work in patent publication US20140082761A1, “METHODS TO INCREASE PLANT PRODUCTIVITY” (PLANT SENSORY SYSTEMS, LLC, priority 2011, published 2014).

The target in data set [1] is T1, sulfinoalanine decarboxylase (SAD) (Rattus norvegicus, UniProt Q64611).
T1 construct: in vitro assays on SAD isolated from rat; host or cells: enzyme isolated from rat
T1 sequence (Q64611 1-493): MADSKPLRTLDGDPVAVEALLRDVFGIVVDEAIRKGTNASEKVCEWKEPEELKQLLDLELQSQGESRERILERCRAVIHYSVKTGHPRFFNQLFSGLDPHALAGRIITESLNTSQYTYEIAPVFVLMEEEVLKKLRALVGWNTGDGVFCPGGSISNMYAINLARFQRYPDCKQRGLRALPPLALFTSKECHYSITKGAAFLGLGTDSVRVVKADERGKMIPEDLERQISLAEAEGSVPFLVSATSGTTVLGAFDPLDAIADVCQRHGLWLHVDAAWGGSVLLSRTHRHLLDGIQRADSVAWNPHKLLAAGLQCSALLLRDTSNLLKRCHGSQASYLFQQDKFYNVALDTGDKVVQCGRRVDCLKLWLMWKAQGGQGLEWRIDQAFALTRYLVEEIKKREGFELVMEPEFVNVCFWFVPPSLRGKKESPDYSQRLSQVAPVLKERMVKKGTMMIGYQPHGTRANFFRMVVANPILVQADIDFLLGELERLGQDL
The conditions noted are these: substrate of SAD (decarboxylation); literature values.

`NCCS(=O)(=O)O` [taurine, 2-aminoethane sulfonic acid]: the “effect of exogenous application on plant growth and production” value in the data set with plants (crop) is “increase crop harvest, yield, and biomass, increase seedling growth and increase photosynthetic capacity of isolated plant cells and chloroplasts”.

On to `N[C@@H](CCC(=O)O)C(=O)O` [glutamate], for which, in data set [1], the Km (usually the substrate concentration at which the rate is half of its maximum) is 2.9 mM.

Consider `N[C@@H](CC(=O)O)C(=O)O` [aspartate], for which, in data set [1], the Km is 11 mM.
